{"source": "patent US7666414B2", "about": "“Methods for treating prostate cancer using modified antibodies to prostate-specific membrane antigen” (Cornell Research Foundation, Inc., priority 2001, dated 2010)", "key": {"[1]": {"tested_on": "LNCaP cells tumor xenografts", "experiment": "Murine J591-DM1 immunoconjugate in LNCaP xenografts", "format": "in vivo, BALB/c mice", "conditions": "unconjugated, alone or with unconjugated mAb J591, intraperitoneal qday x 5 days", "description": "Tumor xenografts of LNCaP cells were established in the right flank of BALB/c mice (5×10^6 cells injected subcutaneously). Animals were observed until tumors were visible (7-10 mm). Animals were then treated with PBS, unconjugated mAb J591, unconjugated DM1, both mAb J591 and DM1 but unconjugated, and J591-DM1 immunoconjugate (100, 200, 300, and 400 mcg/day intraperitoneal qday×5 days). The mAb J591 was modified to introduce dithiopyridyl groups and then conjugated to DM1 via a hindered disulfide bond, as described above. Unconjugated mAb J591 and DM1 were given in equimolar concentrations.\nTumor xenografts of both LNCaP cells (5×10^6 cells injected subcutaneously in the right flank) and PC3 cells (3×10^6 cells injected subcutaneously in the left flank) were established in BALB/c mice. Animals were observed until LNCaP tumors were visible (PC3 tumors were present but much smaller). Animals treated with J591-DM1 immunoconjugate: 300 mcg/day intraperitoneal qday×5 days\nTumor xenografts of LNCaP cells were established subcutaneously in the right flank of BALB/c mice. […]\nAll animals were photographed pre- and post-treatment and tagged for identification. Tumor volume was determined (length×width×depth) and closely followed. […]"}, "[2]": {"tested_on": "PSMA-positive CWR22 xenografts", "experiment": "Efficacy in PSMA-positive CWR22 xenografts", "format": "in vivo, C.B-17 scid mice", "description": "Experiment: Male SCID mice were implanted by serial passage of CWR22 prostate tumor xenograft. […] All treatments were given intravenously. Tumor growth and animal health were continually monitored throughout the study with tumor growth measured every 3 days.\nExperiment: Male C.B-17 SCID mice bearing CWR22 xenografts approximately 200 mm^3 in size received IV injections (200 μL constant volume) of the test articles according to the dose and schedule as shown in Table 22.\nMale C.B-17 scid mice bearing CWR22 xenografts approximately 200 mm^3 in size received IV injections (200 μL constant volume) of the test articles according to the dose and schedule shown in the Table 23.\nThe objective of this study was to determine how much the dosing interval could be increased at this dosage before a loss of efficacy in terms of TGD would be observed. […] The growth delays for the other schedules were: q7d, 53.0 days; q21d, 48.0 days; and q28d, 26.9 days. Similar to other studies using the CWR22 xenograft model, no curative responses were observed, with all tumors eventually resuming growth (FIG. 18).\nExperiment: Male SCID mice were implanted by serial passage of CWR22 prostate tumor xenograft. […] All treatments were given intravenously and on a schedule of every three days for 5 doses. Tumor growth and animal health were continually monitored throughout the study with tumor growth measured every 3 days.\nExperiment: Male SCID mice were implanted by serial passage of CWR22 prostate tumor xenograft. […] All treatments were given intravenously and on a schedule of every seven days for 5 doses. Tumor growth and animal health were continually monitored throughout the study with tumor growth measured every 3 days."}, "[3]": {"tested_on": "PSMA-positive 22RV1 xenografts", "experiment": "Efficacy in castrate or intact scid mice bearing androgen-independent 22RV1 xenograft", "format": "in vivo, C.B-17 scid mice", "conditions": "240 μg/kg, q3dX5", "description": "Prostate tumors can be broadly classified as either androgen-dependent or androgen-independent. […] The 22RV1 cell line was originally developed as androgen-independent and can be grown as a xenograft in C.B-17 scid mice that have been left either intact or castrated. […] C.B-17 scid mice bearing CWR22 xenografts approximately 200 mm^3 in size received IV injections (200 μL constant volume) of the test articles according to the dosage and schedule shown in the Table 24."}, "CD-1 mice": {"tested_on": "CD-1 mice", "source_text": "Use of both mice and cynomolgus monkeys for nonclinical testing allowed comparison of exposure and toxicity across species on the basis of body surface area (mg/m^2), and thus aided in selecting the SSD for the proposed Phase 1 clinical trial."}}, "note": "Read-outs that look alike come from different tables or passages of the source.", "data": [{"smiles": "COc1cc2cc(c1Cl)N(C)C(=O)C[C@H](OC(=O)[C@H](C)N(C)C(=O)CCS)[C@]1(C)O[C@H]1[C@H](C)[C@@H]1C[C@@](O)(NC(=O)O1)[C@H](OC)/C=C/C=C(\\C)C2", "note": "[DM1, reference compound]", "values": [{"measurement": "lethality", "setting": "[1]", "result": "died within 48 hours of treatment completion"}, {"measurement": "Tumor Growth Delay", "setting": "[2]; Comparison II, 240 μg/kg, q3dX5", "result": 9.5, "unit": "days"}, {"measurement": "effect on CWR22 xenograft tumor growth", "setting": "[2]; every three days for 5 doses, IV, equimolar to 14.5 mg/kg deJ591-DM1", "result": "some tumor growth delay"}, {"measurement": "Relative TGD (TGD of castrate mice/TGD of intact mice)", "setting": "[3]", "result": 1.4}, {"measurement": "Tumor Growth Delay", "setting": "[3]; Castrate Mice", "result": 9.1, "unit": "days"}, {"measurement": "Tumor Growth Delay", "setting": "[3]; Intact Mice", "result": 6.3, "unit": "days"}, {"measurement": "Degree of Toxicity and Major Target Organs", "setting": "CD-1 mice; DM1 0.86 mg/m^2 (0.29 mg/kg), single IV, CD-1 mice", "result": "Slight mitosis/necrosis of epidermis"}, {"measurement": "Degree of Toxicity and Major Target Organs", "setting": "CD-1 mice; DM1 1.62 mg/m^2 ([…]), single IV, CD-1 mice", "result": "Mild bone marrow myeloid"}, {"measurement": "mortality", "setting": "CD-1 mice; DM1 8.64 mg/m^2 (2.88 mg/kg), single IV, CD-1 mice", "result": "100% mortality attributed to severe"}, {"measurement": "elevated AST and ALT values", "setting": "CD-1 mice; DM1 […]^2 (1.08 mg/kg), single IV, CD-1 mice", "result": "moderate mitosis/necrosis of liver; no"}, {"measurement": "STD", "setting": "CD-1 mice; severely toxic dosage, single IV, CD-1 mice", "result": 1.80, "unit": "mg/kg"}, {"measurement": "toxicity compared to deJ591-DM1 at equimolar dosages", "setting": "CD-1 mice; single IV administration", "result": "tended to be less toxic than deJ591-DM1 at lower dosages"}, {"measurement": "MTD", "setting": "CD-1 mice; single IV, CD-1 mice", "result": 1.08, "unit": "mg/kg"}]}]}
